Measured values reported in ChEMBL document CHEMBL1151944, “Activation of peroxisome proliferator-activated receptor gamma (PPARgamma) by nitroalkene fatty acids: importance of nitration position and degree of unsaturation” (J Med Chem, 2009).
The source made the active and inactive calls. No cut-off for these calls is given here.

Key:
[1] = target: T1, Peroxisome proliferator-activated receptor gamma (Homo sapiens, UniProt P37231); assay: Displacement of [3H2]nTZD3 from GST-tagged human recombinant PPARgamma by scintillation proximity assay
T1 sequence (P37231 whole entry): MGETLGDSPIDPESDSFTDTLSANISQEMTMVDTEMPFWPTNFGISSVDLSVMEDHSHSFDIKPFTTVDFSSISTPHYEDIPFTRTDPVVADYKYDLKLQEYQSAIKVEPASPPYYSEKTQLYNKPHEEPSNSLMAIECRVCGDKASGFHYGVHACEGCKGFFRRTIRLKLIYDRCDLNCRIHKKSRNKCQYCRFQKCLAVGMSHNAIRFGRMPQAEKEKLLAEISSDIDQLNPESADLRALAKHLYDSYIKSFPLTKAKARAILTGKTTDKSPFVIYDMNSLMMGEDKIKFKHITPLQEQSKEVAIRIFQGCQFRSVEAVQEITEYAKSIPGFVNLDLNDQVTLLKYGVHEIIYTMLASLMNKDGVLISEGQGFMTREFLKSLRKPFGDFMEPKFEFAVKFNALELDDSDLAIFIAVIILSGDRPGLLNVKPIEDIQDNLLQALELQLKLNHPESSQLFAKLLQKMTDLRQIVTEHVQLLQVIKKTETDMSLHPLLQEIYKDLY

[2] = target: T2, Peroxisome proliferator-activated receptor alpha (Homo sapiens, UniProt Q07869)
T2 sequence (Q07869 whole entry): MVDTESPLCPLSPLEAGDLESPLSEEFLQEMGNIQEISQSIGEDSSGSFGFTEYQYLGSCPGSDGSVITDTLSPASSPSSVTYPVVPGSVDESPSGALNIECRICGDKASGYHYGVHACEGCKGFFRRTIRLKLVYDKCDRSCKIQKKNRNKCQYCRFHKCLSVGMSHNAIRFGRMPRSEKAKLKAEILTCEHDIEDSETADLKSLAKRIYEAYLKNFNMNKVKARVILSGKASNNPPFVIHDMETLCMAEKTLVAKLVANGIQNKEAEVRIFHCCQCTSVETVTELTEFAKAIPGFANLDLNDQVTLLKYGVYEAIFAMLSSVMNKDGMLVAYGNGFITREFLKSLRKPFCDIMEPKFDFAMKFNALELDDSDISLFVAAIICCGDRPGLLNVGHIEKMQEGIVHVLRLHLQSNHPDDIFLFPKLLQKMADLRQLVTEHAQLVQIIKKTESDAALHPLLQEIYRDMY
Description: (§1) Displacement of [3H2]nTZD3 from GST-tagged human recombinant PPARalpha by scintillation proximity assay

[3] = Cytotoxicity against human MCF7 cells expressing human PPARgamma assessed as cell survival at 5 uM after 7 days by sulforhodamine B assay
[4] = target: T2, Peroxisome proliferator-activated receptor alpha; remark: listed apart in the source
Description: as §1

[5] = target: T3, Peroxisome proliferator-activated receptor gamma (Homo sapiens) (UniProt P37231); assay: Activation of human PPAR-gamma-dependent transcription expressed in human MCF7 cells assessed as induction of PPRE-reporter gene expression at 1 uM after 24 hrs by dual luciferase reporter gene assay; assay type: cell-based
T3 sequence (whole entry): T1 sequence (P37231 whole entry)

Row | SMILES | IC50 [1] [nM] | IC50 [2] [nM] | viability at 168 h, 5 µM [3] [%] | IC50 [4] [nM] | Activity [5]
1 | CCCCCC/C(=C\CCCCCCCC(=O)O)[N+](=O)[O-] | 630 | > 15000 |  |  | 
2 | CCCCCCCCCCCC/C=C(\CCCC(=O)O)[N+](=O)[O-] | 1680 | > 15000 |  |  | 
3 | CCCCC/C(=C\CCCCCCCCCCC(=O)O)[N+](=O)[O-] | 190 | 1100 |  |  | 
4 | CCCCCCCC/C=C(\CCCCCCCC(=O)O)[N+](=O)[O-] [NITROLEIC ACID] | 980 | > 15000 | < 5 |  | 
5 | CCCCCC/C=C(\CCCCCCCC(=O)O)[N+](=O)[O-] | 830 | > 15000 |  |  | 
6 | CCCCC/C=C(\CCCCCCCCCCC(=O)O)[N+](=O)[O-] | 39 | 1600 |  |  | 
7 | CCCCCCCC/C(=C\CCCCCCCC(=O)O)[N+](=O)[O-] [CXA-10] | 1610 | > 15000 |  |  | 
8 | CCCCC/C=C(\C/C=C\CCCCCCCC(=O)O)[N+](=O)[O-] |  |  |  | 9600 | Active
9 | CCCCCCCCCCCC/C(=C\CCCC(=O)O)[N+](=O)[O-] | 1720 | > 15000 |  |  | 
